Data from patent publication US20260325533A1, “CDK INHIBITOR COMPOUNDS” (ALEKSIA THERAPEUTICS, INC., priority 2023, published 2026).
Counter-ions that a name gives are not always drawn. Like-named read-outs stand apart in the source and are kept apart here. Values belong to the compound of their own block, whether it stands above or below them.

Assays:
Format in all cases: biochemical
[1] = target: CDK2/CCNE1 (Homo sapiens, UniProt P24941); assay: CDK2 homogeneous time-resolved fluorescence (HTRF) kinase assay
Summary of the method: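 Compounds were titrated 11-point, half-log from typically 10 μM against 3 nM CDK2/cyclin E1 at 1 mM ATP, with a 20 min enzyme preincubation. Phosphorylation of 50 nM ULight-4E-BP1 peptide over 60 min at 23 °C was detected by europium anti-phospho antibody TR-FRET.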

[2] = target: CDK1/CCNB1 (Homo sapiens, UniProt P06493); assay: CDK1 homogeneous time-resolved fluorescence (HTRF) kinase assay
Summary of the method: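 High-ATP (1 mM) HTRF assay with 0.5 nM CDK1/cyclin B1 and 50 nM ULight-4E-BP1 (Thr37/46) substrate, 60 min at 23 °C after 20-min compound preincubation. IC50 values come from dose-response curves.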

[3] = target: CDK6/CCND1 (Homo sapiens, UniProt Q00534); assay: CDK6 homogeneous time-resolved fluorescence (HTRF) kinase assay
Summary of the method: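 Enzyme pre-incubated 20 min at 23 °C with compound, then reacted 60 min at 23 °C with 1 mM ATP and 50 nM ULight-4E-BP1 (Thr37/46) peptide; 1 nM enzyme, 1% DMSO. EDTA-stopped, Eu-anti-phospho antibody TR-FRET read (665 nm or 665/615 ratio); 11-point half-log titration from 10 μM gave IC50.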

[4] = target: CDK4/CCND3 (Homo sapiens, UniProt P11802); assay: CDK4 homogeneous time-resolved fluorescence (HTRF) kinase assay
Summary of the method: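 Steps: compound plus 1.5 nM CDK4/CCND3, 20 min, 23 °C; add 1 mM ATP and 50 nM ULight-4E-BP1 (Thr37/46) peptide, 60 min; stop with 10 mM EDTA; add 2 nM Eu anti-phospho antibody, 60 min; read 665 nm. IC50 from 11-point half-log series starting 10 μM.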

[5] = CDK2/CCNE, >250 nM marked x, read-out: CDK2/CCNE IC50 >250 nM
[6] = CDK1/CCNB, >250 nM marked x, read-out: CDK1/CCNB IC50 >250 nM
[7] = CDK6/CCND, >250 nM marked x, read-out: CDK6/CCND IC50 >250 nM
[8] = CDK4/CCND, >250 nM marked x, read-out: CDK4/CCND IC50 >250 nM
[9] = CDK2/CCNE, x = IC50 25-250 nM, read-out: CDK2/CCNE IC50 (25-250 nM)
[10] = CDK1/CCNB, x = IC50 >250 nM, read-out: CDK1/CCNB IC50 (>250 nM column)
[11] = CDK6/CCND, x = IC50 >250 nM, read-out: CDK6/CCND IC50 (>250 nM column)
[12] = CDK4/CCND, x = IC50 >250 nM, read-out: CDK4/CCND IC50 (>250 nM column)
[13] = >250 nM, CDK1/CCNB, read-out: CDK1/CCNB IC50 >250 nM
[14] = >250 nM, CDK6/CCND, 1 mM ATP, read-out: CDK6/CCND IC50, >250 nM
[15] = >250 nM, CDK4/CCND, read-out: CDK4/CCND IC50, >250 nM
[16] = CDK6/CCND, 25-250 nM marked x, read-out: CDK6/CCND IC50 25-250 nM
[17] = CDK2/CCNE, x = IC50 <25 nM, read-out: CDK2/CCNE IC50 (<25 nM)
[18] = CDK1/CCNB, x = IC50 25-250 nM, read-out: CDK1/CCNB IC50 (25-250 nM)
[19] = 25-250 nM, CDK2/CCNE, read-out: CDK2/CCNE IC50, 25-250 nM

CDK4/CCND3, sequence (P11802 whole entry): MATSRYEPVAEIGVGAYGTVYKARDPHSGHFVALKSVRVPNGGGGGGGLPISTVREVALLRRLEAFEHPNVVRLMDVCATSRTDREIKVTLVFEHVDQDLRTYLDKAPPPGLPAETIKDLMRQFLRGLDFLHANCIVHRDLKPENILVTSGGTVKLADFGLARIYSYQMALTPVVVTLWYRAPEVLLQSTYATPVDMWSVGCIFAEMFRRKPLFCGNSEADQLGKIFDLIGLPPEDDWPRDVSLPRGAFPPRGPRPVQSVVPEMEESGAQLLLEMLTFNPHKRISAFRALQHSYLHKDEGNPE
CDK4/CCND3, sequence (P30281 whole entry partner): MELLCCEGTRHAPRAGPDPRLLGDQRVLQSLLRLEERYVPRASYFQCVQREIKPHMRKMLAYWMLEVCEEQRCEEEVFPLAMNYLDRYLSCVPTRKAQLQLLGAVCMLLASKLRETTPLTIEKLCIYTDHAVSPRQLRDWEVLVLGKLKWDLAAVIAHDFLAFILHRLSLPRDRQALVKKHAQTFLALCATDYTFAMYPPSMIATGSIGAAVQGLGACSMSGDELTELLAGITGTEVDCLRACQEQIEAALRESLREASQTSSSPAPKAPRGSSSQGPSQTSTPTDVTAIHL
CDK1/CCNB1, sequence (P06493 whole entry): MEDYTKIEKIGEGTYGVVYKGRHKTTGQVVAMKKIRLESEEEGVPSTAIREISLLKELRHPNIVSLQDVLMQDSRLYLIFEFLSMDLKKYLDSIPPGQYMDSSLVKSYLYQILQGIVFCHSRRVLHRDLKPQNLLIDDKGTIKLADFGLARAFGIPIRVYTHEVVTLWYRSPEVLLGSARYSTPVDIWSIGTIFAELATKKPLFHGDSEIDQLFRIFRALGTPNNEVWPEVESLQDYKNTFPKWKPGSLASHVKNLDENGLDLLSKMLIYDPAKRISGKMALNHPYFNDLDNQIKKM
CDK1/CCNB1, sequence (P14635 whole entry partner): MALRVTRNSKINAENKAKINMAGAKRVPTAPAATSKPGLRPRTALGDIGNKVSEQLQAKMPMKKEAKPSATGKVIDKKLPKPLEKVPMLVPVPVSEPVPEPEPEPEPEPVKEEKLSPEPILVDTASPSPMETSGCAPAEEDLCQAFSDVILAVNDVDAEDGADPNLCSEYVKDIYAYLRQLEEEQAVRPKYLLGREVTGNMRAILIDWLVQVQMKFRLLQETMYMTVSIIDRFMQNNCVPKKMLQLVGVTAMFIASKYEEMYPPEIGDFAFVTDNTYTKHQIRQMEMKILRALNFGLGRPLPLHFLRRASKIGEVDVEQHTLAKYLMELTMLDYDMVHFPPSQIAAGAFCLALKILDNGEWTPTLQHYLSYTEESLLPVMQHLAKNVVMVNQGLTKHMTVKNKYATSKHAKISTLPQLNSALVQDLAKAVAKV
CDK6/CCND1, sequence (Q00534 whole entry): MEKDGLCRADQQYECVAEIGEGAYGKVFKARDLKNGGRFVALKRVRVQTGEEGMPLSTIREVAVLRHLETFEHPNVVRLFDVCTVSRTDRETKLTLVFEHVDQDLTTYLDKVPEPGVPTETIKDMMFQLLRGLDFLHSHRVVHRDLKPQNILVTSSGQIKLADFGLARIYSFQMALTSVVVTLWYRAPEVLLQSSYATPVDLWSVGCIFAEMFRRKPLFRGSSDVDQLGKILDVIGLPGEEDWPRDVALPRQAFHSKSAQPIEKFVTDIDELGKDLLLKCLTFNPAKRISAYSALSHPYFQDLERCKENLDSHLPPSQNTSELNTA
CDK6/CCND1, sequence (P24385 whole entry partner): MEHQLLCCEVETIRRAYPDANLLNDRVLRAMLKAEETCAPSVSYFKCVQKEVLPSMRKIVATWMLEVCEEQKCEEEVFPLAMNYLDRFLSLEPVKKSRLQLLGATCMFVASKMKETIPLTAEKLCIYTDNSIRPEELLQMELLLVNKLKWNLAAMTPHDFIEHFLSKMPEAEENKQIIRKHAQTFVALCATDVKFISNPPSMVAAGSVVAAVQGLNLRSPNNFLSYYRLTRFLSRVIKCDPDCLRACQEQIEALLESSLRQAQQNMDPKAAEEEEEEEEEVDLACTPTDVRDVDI

- IC50 [1, 5]: > 250 nM
- IC50 [2, 6]: > 250 nM
- IC50 [3, 7]: > 250 nM
- IC50 [4, 8]: > 250 nM
Structure (SMILES): CC(C)S(=O)(=O)N1CCC(c2nccc3cnc(Nc4ccc(S(C)(=O)=O)cc4)cc23)C1 (racemic) [Ex 236, 5-(1-(isopropylsulfonyl)pyrrolidin-3-yl)-N-(4-(methylsulfonyl)phenyl)-2,6-naphthyridin-3-amine]

- IC50 [1, 9]: 25 to 250 nM
- IC50 [2, 10]: > 250 nM
- IC50 [3, 11]: > 250 nM
- IC50 [4, 12]: > 250 nM
Structure (SMILES): Cc1cc(C#Cc2nccc3cnc(Nc4ccc(S(C)(=O)=O)cc4)cc23)n[nH]1 [Ex 582, 5-((5-methyl-1H-pyrazol-3-yl)ethynyl)-N-(4-(methylsulfonyl)phenyl)-2,6-naphthyridin-3-amine]

- IC50 ([1]; <25 nM, CDK2/CCNE, read-out: CDK2/CCNE IC50, <25 nM): < 25 nM
- IC50 [2, 13]: > 250 nM
- IC50 [3, 14]: > 250 nM
- IC50 [4, 15]: > 250 nM
Structure (SMILES): Cc1c(-c2nccc3cnc(Nc4ccc(S(=O)(=O)Nc5ccccc5)cc4)cc23)ccc2c1cnn2CC(C)(C)O [Ex 809, 4-((5-(1-(2-hydroxy-2-methylpropyl)-4-methyl-1H-indazol-5-yl)-2,6-naphthyridin-3-yl)amino)-N-phenylbenzenesulfonamide]

- IC50 ([1]; CDK2/CCNE, <25 nM, read-out: CDK2/CCNE IC50 <25 nM): < 25 nM
- IC50 ([2]; CDK1/CCNB, 25-250 nM marked x, read-out: CDK1/CCNB IC50 25-250 nM): 25 to 250 nM
- IC50 [3, 16]: 25 to 250 nM
- IC50 ([4]; CDK4/CCND, 25-250 nM marked x, read-out: CDK4/CCND IC50 25-250 nM): 25 to 250 nM
Structure (SMILES): CS(=O)(=O)c1ccc(Nc2cc3c(C#CC4CC(O)C4)nccc3cn2)cc1 (racemic) [Ex 147, 3-((7-((4-(methylsulfonyl)phenyl)amino)-2,6-naphthyridin-1-yl)ethynyl)cyclobutan-1-ol]

- IC50 [1, 17]: < 25 nM
- IC50 [2, 18]: 25 to 250 nM
- IC50 [3, 11]: > 250 nM
- IC50 [4, 12]: > 250 nM
Structure (SMILES): CC(C)S(=O)(=O)c1ccc(Nc2cc3c(C#Cc4ccc5c(c4)NC(=O)C5(C)C)nccc3cn2)cc1 [Ex 458, 6-((7-((4-(isopropylsulfonyl)phenyl)amino)-2,6-naphthyridin-1-yl)ethynyl)-3,3-dimethylindolin-2-one]

- IC50 [1, 9]: 25 to 250 nM
- IC50 [2, 10]: > 250 nM
- IC50 [3, 11]: > 250 nM
- IC50 [4, 12]: > 250 nM
Structure (SMILES): Cc1c(-c2nccc3cnc(Nc4ccc(S(C)(=O)=O)cc4)cc23)ccc2c1cnn2C(C)(C)C(N)=O [Ex 610, 2-methyl-2-(4-methyl-5-(7-((4-(methylsulfonyl)phenyl)amino)-2,6-naphthyridin-1-yl)-1H-indazol-1-yl)propanamide]

- IC50 [1, 9]: 25 to 250 nM
- IC50 [2, 10]: > 250 nM
- IC50 [3, 11]: > 250 nM
- IC50 [4, 12]: > 250 nM
Structure (SMILES): CC(C)(O)Cn1ncc2c(C#Cc3nccc4cnc(Nc5ccc(S(C)(=O)=O)cc5)cc34)cncc21 [Ex 562, 2-methyl-1-(4-((7-((4-(methylsulfonyl)phenyl)amino)-2,6-naphthyridin-1-yl)ethynyl)-1H-pyrazolo[3,4-c]pyridin-1-yl)propan-2-ol]

- IC50 [1, 9]: 25 to 250 nM
- IC50 [2, 10]: > 250 nM
- IC50 [3, 11]: > 250 nM
- IC50 [4, 12]: > 250 nM
Structure (SMILES): CS(=O)(=O)c1ccc(Nc2cc3c(C#Cc4cnc(N)c(OC(F)F)c4)nccc3cn2)cc1 [Ex 534, 5-((6-amino-5-(difluoromethoxy)pyridin-3-yl)ethynyl)-N-(4-(methylsulfonyl)phenyl)-2,6-naphthyridin-3-amine]

- IC50 [1, 19]: 25 to 250 nM
- IC50 [2, 13]: > 250 nM
- IC50 [3, 14]: > 250 nM
- IC50 [4, 15]: > 250 nM
Structure (SMILES): CS(=O)(=O)c1ccc(Nc2cc3c(C#Cc4ccc5c(c4)OCO5)nccc3cn2)cc1 [Ex 857, 5-(benzo[d][1,3]dioxol-5-ylethynyl)-N-(4-(methylsulfonyl)phenyl)-2,6-naphthyridin-3-amine]

- IC50 [1, 9]: 25 to 250 nM
- IC50 [2, 10]: > 250 nM
- IC50 [3, 11]: > 250 nM
- IC50 [4, 12]: > 250 nM
Structure (SMILES): CC(C)S(=N)(=O)c1ccc(Nc2cc3c(C#Cc4cccnc4N)nccc3cn2)cc1 (single isomer, unassigned) [Ex 402, (4-((5-((2-aminopyridin-3-yl)ethynyl)-2,6-naphthyridin-3-yl)amino)phenyl)(imino)(isopropyl)-l6-sulfanone]

- IC50 ([1]; >250 nM, CDK2/CCNE, read-out: CDK2/CCNE IC50, >250 nM): > 250 nM
- IC50 [2, 13]: > 250 nM
- IC50 [3, 14]: > 250 nM
- IC50 [4, 15]: > 250 nM
Structure (SMILES): COc1cc(C#Cc2nccc3cnc(Nc4ccc(S(C)(=O)=O)cc4)cc23)ccc1F [Ex 912, 5-((4-fluoro-3-methoxyphenyl)ethynyl)-N-(4-(methylsulfonyl)phenyl)-2,6-naphthyridin-3-amine]

- IC50 [1, 19]: 25 to 250 nM
- IC50 [2, 13]: > 250 nM
- IC50 [3, 14]: > 250 nM
- IC50 [4, 15]: > 250 nM
Structure (SMILES): CS(=O)(=O)c1ccc(Nc2cc3c(C#Cc4cc(O)cc(F)c4)nccc3cn2)cc1 [Ex 911, 3-fluoro-5-((7-((4-(methylsulfonyl)phenyl)amino)-2,6-naphthyridin-1-yl)ethynyl)phenol]

- IC50 [1, 9]: 25 to 250 nM
- IC50 [2, 10]: > 250 nM
- IC50 ([3]; CDK6/CCND, x = IC50 <25 nM, read-out: CDK6/CCND IC50 (<25 nM)): < 25 nM
- IC50 [4, 12]: > 250 nM
Structure (SMILES): CS(=O)(=O)c1ccc(Nc2cc3c(C#Cc4n[nH]c5cccc(F)c45)nccc3cn2)cc1 [Ex 551, 5-((4-fluoro-1H-indazol-3-yl)ethynyl)-N-(4-(methylsulfonyl)phenyl)-2,6-naphthyridin-3-amine]

- IC50 ([1]; CDK2/CCNE, 25-250 nM marked x, read-out: CDK2/CCNE IC50 25-250 nM): 25 to 250 nM
- IC50 [2, 6]: > 250 nM
- IC50 [3, 16]: 25 to 250 nM
- IC50 [4, 8]: > 250 nM
Structure (SMILES): C=CS(=O)(=O)c1ccc(Nc2cc3c(-c4ccc5cn[nH]c5c4)nccc3cn2)cc1 [Ex 241, 5-(1H-indazol-6-yl)-N-(4-(vinylsulfonyl)phenyl)-2,6-naphthyridin-3-amine]

- IC50 [1, 9]: 25 to 250 nM
- IC50 [2, 10]: > 250 nM
- IC50 [3, 11]: > 250 nM
- IC50 [4, 12]: > 250 nM
Structure (SMILES): Cc1c(-c2nccc3cnc(Nc4ccc(S(C)(=O)=O)cc4)cc23)ncc2[nH]ncc12 [Example 591, 5-(4-methyl-1H-pyrazolo[3,4-c]pyridin-5-yl)-N-(4-(methylsulfonyl)phenyl)-2,6-naphthyridin-3-amine]

- IC50 ([1]; 3 nM CDK2/CCNE1, 1 mM ATP, read-out: CDK2/CCNE IC50 >250 nM): > 250 nM
- IC50 ([2]; 0.5 nM CDK1/CCNB1, 1 mM ATP, read-out: CDK1/CCNB IC50 >250 nM): > 250 nM
- IC50 ([3]; 1 nM CDK6/CCND1, 1 mM ATP, read-out: CDK6/CCND IC50 >250 nM): > 250 nM
- IC50 ([4]; 1.5 nM CDK4/CCND3, 1 mM ATP, read-out: CDK4/CCND IC50 >250 nM): > 250 nM
Structure (SMILES): CS(=O)(=O)c1ccc(Nc2ncc3ccc(C#N)c(C#Cc4ccc5c(c4)CCNC5)c3n2)cc1 [Example 948, 2-((4-(methylsulfonyl)phenyl)amino)-8-((1,2,3,4-tetrahydroisoquinolin-6-yl)ethynyl)quinazoline-7-carbonitrile, TFA Salt]

- IC50 [1, 5]: > 250 nM
- IC50 [2, 6]: > 250 nM
- IC50 [3, 7]: > 250 nM
- IC50 [4, 8]: > 250 nM
Structure (SMILES): CS(=O)(=O)c1ccc(Nc2cc3c(C4CCN(Cc5ccccc5)C4)nccc3cn2)cc1 (racemic) [Ex 230, 5-(1-benzylpyrrolidin-3-yl)-N-(4-(methylsulfonyl)phenyl)-2,6-naphthyridin-3-amine]

- IC50 [1, 17]: < 25 nM
- IC50 [2, 18]: 25 to 250 nM
- IC50 ([3]; CDK6/CCND, x = IC50 25-250 nM, read-out: CDK6/CCND IC50 (25-250 nM)): 25 to 250 nM
- IC50 ([4]; CDK4/CCND, x = IC50 25-250 nM, read-out: CDK4/CCND IC50 (25-250 nM)): 25 to 250 nM
Structure (SMILES): CCS(=N)(=O)c1ccc(Nc2cc3c(C#Cc4ccc5c(c4)NC(=O)C5(C)C)nccc3cn2)cc1 (single isomer, unassigned) [Ex 462, 6-((7-((4-(ethylsulfonimidoyl)phenyl)amino)-2,6-naphthyridin-1-yl)ethynyl)-3,3-dimethylindolin-2-one]
